Assay results: patent US20220387393A1, “METHODS FOR THE TREATMENT OF DYSMYELINATING/DEMYELINATING DISEASES” (Board of Regents, The University of Texas System, priority 2019, published 2022)

Tests used:
[1] = test system: Qk-iCKO mice; test: Qki depletion-induced demyelination in Qk-iCKO mice, daily oral administration; assay type: in vivo; conditions: for Qk-iCKO mice that lived for more than 100 days: 3 of 13 treated Qk-iCKO mice; for maximum survival duration increased / clinical scores / onset of neurological deficits / prolonged median survival times / body weights: Qk-iCKO mice; for maximum survival duration increased: compared to controls; for clinical scores / onset of neurological deficits / prolonged median survival times / body weights: oral administration, compared to vehicle; for body weights: 4 weeks after tamoxifen injection; for higher myelin lipid levels (FluoroMyelin) than vehicle-treated Qk-iCKO mice: corpus callosum; for higher myelin lipid levels (FluoroMyelin) than vehicle-treated Qk-iCKO mice / myelin sheaths (g-ratio) / more myelinated axons than vehicle-treated Qk-iCKO mice: after 5 weeks of treatment; for myelin sheaths (g-ratio) / more myelinated axons than vehicle-treated Qk-iCKO mice: optic nerves; for myelin sheaths (g-ratio): versus vehicle; for more myelinated axons than vehicle-treated Qk-iCKO mice: electron micrographs
Excerpt: FIGS. 2A-2J. […] In FIG. 2A, the four groups within each week represent, from left to right, Ctrl (Veh), iCKO (Veh), Ctrl (KD3010), and iCKO (KD3010). In FIG. 2D, the four groups within each week represent, from left to right, Ctrl (Veh), iCKO (Veh), Ctrl (Bex), and iCKO (Bex). In FIGS. 2B and 2E, the two lines that reach the X-axis represent the iCKO populations. (FIGS. 2C and 2F) Body weights of Qk-iCKO mice and controls receiving daily oral administration of KD3010, Bex, or Veh for 4 weeks after tamoxifen injection. (FIGS. 2G and 2H) Representative electron micrographs and quantification of the percentage of myelinated axons and g-ratio of the optic nerves of the experimental mice after 5 weeks of treatment. Scale bars, 500 nm. (FIGS. 2I and 2J) Representative images and quantification of FluoroMyelin level in the corpus callosum tissues of experimental mice after 5 weeks of treatment. Scale bars, 50 μm. Data are mean±s.d.; one-way ANOVA with Fisher's LSD correction. *P<0.05; **P<0.01; ***P<0.001; ****P<0.0001. ns, not significant.
Therefore, whether PPARβ-RXRα agonists could alleviate lipid defect-induced demyelination and its related symptoms was tested.

[2] = test system: corpus callosum (CC) myelin of mouse brains; assay type: in vivo; conditions: for delayed-onset demyelination and myelin lipid reduction in the CC: 6 months, but not 4 months, after chemotherapy cessation
Excerpt: (§1) FIGS. 4A-4C. […] (FIG. 4A) Quantitative FluoroMyelin staining of the corpus callosum (CC) in 4-month and 6-month mouse brains treated with 5-FU, saline and/or KD3010. (FIG. 4B) Quantitative immunofluorescent staining of oligodendrocyte lineage marker Olig2 in the CC of 6-month mouse brains treated with 5-FU or saline.

[3] = test system: corpus callosum (CC) myelin of mouse brains; conditions: 6 months after a clinically relevant dose for 1 week; cited from earlier work
[4] = test system: demyelination induced by 5-FU; test: 5-FU (chemotherapy)-induced demyelination in mice, treatment with agonist; assay type: in vivo; conditions: FluoroMyelin staining of corpus callosum, mouse brains treated with 5-FU
Excerpt: as §1

[5] = Dickey et al., 2016; cited from earlier work

Structure (SMILES)	Qk-iCKO mice that lived for more than 100 days [1] [%]	maximum survival duration increased [1] [fold]	clinical scores [1]	onset of neurological deficits [1]	prolonged median survival times [1] [fold]	body weights [1]	higher myelin lipid levels (FluoroMyelin) than vehicle-treated Qk-iCKO mice [1] [%]	myelin sheaths (g-ratio) [1]	more myelinated axons than vehicle-treated Qk-iCKO mice [1] [%]	delayed-onset demyelination and myelin lipid reduction in the CC [2]	further results
C=C(c1ccc(C(=O)O)cc1)c1cc2c(cc1C)C(C)(C)CCC2(C)C [bexarotene]	23.1	4.03	lowered	significantly delayed	1.41	increased	89.5	thicker	73.7	–	–
O=c1[nH]cc(F)c(=O)[nH]1 [5-FU, 5-fluorouracil]	–	–	–	–	–	–	–	–	–	exhibited delayed-onset demyelination and myelin lipid reduction	changes in myelin protein levels and oligodendrocyte numbers ([2]; CC of 6-month mouse brains): minimal changes; Qki in the oligodendrocytes in the lesions ([2]; Olig2/Qki double staining, CC of 6-month mouse brains): greatly reduced; delayed-onset demyelination (Han et al., 2008) [3]: developed delayed-onset demyelination
CN(Cc1cnc2nc(N)nc(N)c2n1)c1ccc(C(=O)N[C@@H](CCC(=O)O)C(=O)O)cc1 [methotrexate]	–	–	–	–	–	–	–	–	–	exhibited delayed-onset demyelination and myelin lipid reduction	–
COc1cccc2c1C(=O)c1c(O)c3c(c(O)c1C2=O)C[C@@](O)(C(=O)CO)C[C@@H]3O[C@H]1C[C@H](N)[C@H](O)[C@H](C)O1 [doxorubicin]	–	–	–	–	–	–	–	–	–	exhibited delayed-onset demyelination and myelin lipid reduction	–
C[C@@H]1CN(c2ccc(OC(F)(F)F)cc2)C[C@H](C)N1S(=O)(=O)c1cccc2c1C[C@@H](C(=O)O)C2 [KD3010, (S)-4-[cis-2,6-dimethyl-4-(4-trifluoromethoxy-phenyl)piperazine-1-sulfonyl]-indan-2-carboxylic acid]	23.1	3.72	lowered	significantly delayed	2.34	increased	119.4	thicker	115.3	–	demyelination induced by 5-FU [4]: greatly alleviated; CNS permeability [5]: CNS-permeable
